In PubChem BioAssay (NCI):
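At the GI50, growth is halved. TGI: concentration producing complete growth inhibition.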

Assays:
Experiment in all cases: NCI-60 cell line screen, 384-well format
[1] = system: CCRF-CEM leukemia
[2] = system: RPMI-8226 leukemia
[3] = system: A549 NSCLC
[4] = system: NCI-H322M lung
[5] = system: SNB-75 CNS
[6] = system: MDA-MB-435 melanoma
[7] = system: SK-MEL-28 melanoma
[8] = system: UO-31 renal
[9] = system: MDA-MB-231 breast
[10] = system: NCI-H226 lung
[11] = system: OVCAR-5 ovarian
[12] = system: OVCAR-3 ovarian
[13] = system: A498 renal
[14] = system: PC-3 prostate
[15] = system: SF-268 CNS
[16] = system: MOLT-4 leukemia
[17] = system: HL-60(TB) leukemia
[18] = system: OVCAR-8 ovarian
[19] = system: IGROV1 ovarian
[20] = system: OVCAR-4 ovarian
[21] = system: RXF 393 renal
[22] = system: SF-539 CNS
[23] = system: MDA-MB-468 breast
[24] = system: DU-145 prostate
[25] = system: SNB-19 CNS
[26] = system: T-47D breast
[27] = system: NCI-H23 lung
[28] = system: MCF7 breast
[29] = system: NCI-H522 lung
[30] = system: SK-OV-3 ovarian
[31] = system: NCI-H460 NSCLC
[32] = system: SK-MEL-5 melanoma
[33] = system: TK-10 renal
[34] = system: NCI/ADR-RES ovarian
[35] = system: LOX IMVI melanoma
[36] = system: HT29 colon
[37] = system: HOP-62 NSCLC
[38] = system: HCT-15 colon
[39] = system: CAKI-1 renal
[40] = system: K-562 leukemia
[41] = system: HCC-2998 colon
[42] = system: M14 melanoma
[43] = system: U251 glioblastoma
[44] = system: SF-295 CNS
[45] = system: EKVX NSCLC
[46] = system: ACHN renal
[47] = system: SW-620 colon
[48] = system: MALME-3M melanoma
[49] = system: 786-0 renal
[50] = system: HOP-92 NSCLC
[51] = system: UACC-62 melanoma
[52] = system: KM12 colon
[53] = system: SN12C renal
[54] = system: UACC-257 melanoma
[55] = system: HS 578T breast
[56] = system: COLO 205 colon
[57] = system: SR leukemia
[58] = system: BT-549 breast

**Q.** With Cn1cncc1[C@@](N)(c1ccc(Cl)cc1)c1ccc2c(c1)c(-c1cccc(Cl)c1)cc(=O)n2C as the compound, how does the GI50 [1] read?
**A.** < 10 nM

**Q.** And the TGI [1]?
**A.** 1250 nM

**Q.** And the GI50 [2]?
**A.** 11.1 nM

**Q.** What about the TGI [2] of the same compound?
**A.** 218 nM

**Q.** What about the GI50 [3] of the same compound?
**A.** 1640 nM

**Q.** What about the TGI [3] of the same compound?
**A.** 11100 nM

**Q.** And the GI50 [4]?
**A.** 2060 nM

**Q.** What about the TGI [4] of the same compound?
**A.** 15800 nM

**Q.** And the GI50 [5]?
**A.** 1350 nM

**Q.** What about the TGI [5] of the same compound?
**A.** 4960 nM

**Q.** And the GI50 [6]?
**A.** 189 nM

**Q.** And the TGI [6]?
**A.** 1510 nM

**Q.** And the GI50 [7]?
**A.** 1370 nM

**Q.** And the TGI [7]?
**A.** 6440 nM

**Q.** What about the GI50 [8] of the same compound?
**A.** 708 nM

**Q.** What about the TGI [8] of the same compound?
**A.** 9770 nM

**Q.** What about the GI50 [9] of the same compound?
**A.** 1520 nM

**Q.** What about the TGI [9] of the same compound?
**A.** 8300 nM

**Q.** What about the GI50 [10] of the same compound?
**A.** 1080 nM

**Q.** What about the TGI [10] of the same compound?
**A.** 6960 nM

**Q.** And the GI50 [11]?
**A.** 2490 nM

**Q.** What about the TGI [11] of the same compound?
**A.** 12200 nM

**Q.** And the GI50 [12]?
**A.** 1250 nM

**Q.** What about the TGI [12] of the same compound?
**A.** 3770 nM

**Q.** What about the GI50 [13] of the same compound?
**A.** 74.6 nM

**Q.** What about the TGI [13] of the same compound?
**A.** 4040 nM

**Q.** And the GI50 [14]?
**A.** 1420 nM

**Q.** What about the TGI [14] of the same compound?
**A.** 6970 nM

**Q.** And the GI50 [15]?
**A.** 1780 nM

**Q.** And the TGI [15]?
**A.** 11400 nM

**Q.** And the GI50 [16]?
**A.** < 10 nM

**Q.** And the TGI [16]?
**A.** 57.9 nM

**Q.** And the GI50 [17]?
**A.** < 10 nM

**Q.** What about the TGI [17] of the same compound?
**A.** 1280 nM

**Q.** And the GI50 [18]?
**A.** 2410 nM

**Q.** And the TGI [18]?
**A.** 12300 nM

**Q.** And the GI50 [19]?
**A.** 1560 nM

**Q.** And the TGI [19]?
**A.** 4990 nM

**Q.** What about the GI50 [20] of the same compound?
**A.** 1130 nM

**Q.** And the TGI [20]?
**A.** 5260 nM

**Q.** And the GI50 [21]?
**A.** 472 nM

**Q.** What about the TGI [21] of the same compound?
**A.** 10100 nM

**Q.** What about the GI50 [22] of the same compound?
**A.** 1210 nM

**Q.** What about the TGI [22] of the same compound?
**A.** 4330 nM

**Q.** What about the GI50 [23] of the same compound?
**A.** 23.5 nM

**Q.** What about the TGI [23] of the same compound?
**A.** 1830 nM

**Q.** What about the GI50 [24] of the same compound?
**A.** 2400 nM

**Q.** And the TGI [24]?
**A.** 12100 nM

**Q.** What about the GI50 [25] of the same compound?
**A.** 2330 nM

**Q.** And the TGI [25]?
**A.** 13200 nM

**Q.** And the GI50 [26]?
**A.** 64.5 nM

**Q.** And the TGI [26]?
**A.** 3670 nM

**Q.** What about the GI50 [27] of the same compound?
**A.** 1510 nM

**Q.** And the TGI [27]?
**A.** 4810 nM

**Q.** And the GI50 [28]?
**A.** 1080 nM

**Q.** And the TGI [28]?
**A.** 3660 nM

**Q.** And the GI50 [29]?
**A.** 1100 nM

**Q.** And the TGI [29]?
**A.** 3850 nM

**Q.** And the GI50 [30]?
**A.** 1260 nM

**Q.** And the TGI [30]?
**A.** 8170 nM

**Q.** And the GI50 [31]?
**A.** 391 nM

**Q.** And the TGI [31]?
**A.** 6170 nM

**Q.** What about the GI50 [32] of the same compound?
**A.** 313 nM

**Q.** And the TGI [32]?
**A.** 2130 nM

**Q.** And the GI50 [33]?
**A.** 1750 nM

**Q.** And the TGI [33]?
**A.** 6980 nM

**Q.** And the GI50 [34]?
**A.** 1620 nM

**Q.** What about the TGI [34] of the same compound?
**A.** 5510 nM

**Q.** And the GI50 [35]?
**A.** 1130 nM

**Q.** And the TGI [35]?
**A.** 3310 nM

**Q.** And the GI50 [36]?
**A.** 1380 nM

**Q.** And the TGI [36]?
**A.** 3620 nM

**Q.** What about the GI50 [37] of the same compound?
**A.** 1900 nM

**Q.** And the TGI [37]?
**A.** 8680 nM

**Q.** And the GI50 [38]?
**A.** 884 nM

**Q.** And the TGI [38]?
**A.** 5180 nM

**Q.** What about the GI50 [39] of the same compound?
**A.** 2110 nM

**Q.** What about the TGI [39] of the same compound?
**A.** 11900 nM

**Q.** What about the GI50 [40] of the same compound?
**A.** 200 nM

**Q.** What about the TGI [40] of the same compound?
**A.** 2050 nM

**Q.** What about the GI50 [41] of the same compound?
**A.** 1270 nM

**Q.** What about the TGI [41] of the same compound?
**A.** 3230 nM

**Q.** What about the GI50 [42] of the same compound?
**A.** 22 nM

**Q.** And the TGI [42]?
**A.** 2210 nM

**Q.** And the GI50 [43]?
**A.** 1110 nM

**Q.** And the TGI [43]?
**A.** 12600 nM

**Q.** And the GI50 [44]?
**A.** 463 nM

**Q.** What about the TGI [44] of the same compound?
**A.** 2780 nM

**Q.** What about the GI50 [45] of the same compound?
**A.** 1520 nM

**Q.** And the TGI [45]?
**A.** 6020 nM

**Q.** What about the GI50 [46] of the same compound?
**A.** 1280 nM

**Q.** And the TGI [46]?
**A.** 5310 nM

**Q.** And the GI50 [47]?
**A.** 1360 nM

**Q.** What about the TGI [47] of the same compound?
**A.** 4410 nM

**Q.** And the GI50 [48]?
**A.** 141 nM

**Q.** What about the TGI [48] of the same compound?
**A.** 2050 nM

**Q.** What about the GI50 [49] of the same compound?
**A.** 1160 nM

**Q.** And the TGI [49]?
**A.** 8760 nM

**Q.** And the GI50 [50]?
**A.** 271 nM

**Q.** What about the TGI [50] of the same compound?
**A.** 3620 nM

**Q.** And the GI50 [51]?
**A.** 173 nM

**Q.** And the TGI [51]?
**A.** 2750 nM

**Q.** And the GI50 [52]?
**A.** 186 nM

**Q.** What about the TGI [52] of the same compound?
**A.** 2310 nM

**Q.** And the GI50 [53]?
**A.** 179 nM

**Q.** And the TGI [53]?
**A.** 5390 nM

**Q.** And the GI50 [54]?
**A.** 1380 nM

**Q.** What about the TGI [54] of the same compound?
**A.** 4880 nM

**Q.** And the GI50 [55]?
**A.** 1460 nM

**Q.** And the TGI [55]?
**A.** 4620 nM

**Q.** And the GI50 [56]?
**A.** 1230 nM

**Q.** What about the TGI [56] of the same compound?
**A.** 3770 nM

**Q.** And the GI50 [57]?
**A.** 12.9 nM

**Q.** What about the TGI [57] of the same compound?
**A.** 194 nM

**Q.** And the GI50 [58]?
**A.** 1340 nM

**Q.** What about the TGI [58] of the same compound?
**A.** 4320 nM
